Broadly, the IC50 is the midpoint of a concentration-inhibition curve.

The test system of the first assay is OF1 mice. In words: Maximal electroshock test (MES Test). The class given is in vivo. To be noted: Mus musculus, po; 50 mg/kg, p.o., pre-treatment time −0.5 h (footnote d); read-out: %-Protection. The method, boiled down: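 Readout: fraction of five OF1 mice protected, meaning seizure duration 3 s or less, after a 50 Hz, 18 mA, 0.2 s temporal-electrode shock. Dosing was oral, usually 50 mg/kg, one hour beforehand; ED50 values were derived and post-shock blood taken for exposure.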
A general note: Protection in the maximal electroshock model is a classic sign of anticonvulsant action.
With `CCC(=O)N(n1c(=O)[nH]c2cc(C(F)(F)F)c([C@H]3CCCO3)cc2c1=O)S(C)(=O)=O` [Example 10.02, N—((R)-2,4-Dioxo-6-tetrahydro-furan-2-yl-7-trifluoromethyl-1,4-dihydro-2H-quinazolin-3-yl)-N-propionyl-methanesulfonamide], the responders at 50 mg/kg turned out to be 60%.

The same assay, now with this note: Mus musculus, po; 50 mg/kg, p.o., pre-treatment time −1 h; read-out: %-Protection.
`CCn1nccc1-c1cc2c(=O)n(N(C(=O)COC(C)=O)S(C)(=O)=O)c(=O)[nH]c2cc1C(F)F` [Example 14.01, Acetic acid 2-{[7-difluoromethyl-6-(2-ethyl-2H-pyrazol-3-yl)-2,4-dioxo-1,4-dihydro-2H-quinazolin-3-yl]-methanesulfonyl-amino}-2-oxo-ethyl ester]: the responders at 50 mg/kg was determined as 20%. Take `CCC(=O)N(n1c(=O)[nH]c2cc(C(F)(F)F)c([C@H]3CCCO3)cc2c1=O)S(C)(=O)=O` [Example 10.02, N—((R)-2,4-Dioxo-6-tetrahydro-furan-2-yl-7-trifluoromethyl-1,4-dihydro-2H-quinazolin-3-yl)-N-propionyl-methanesulfonamide]: the responders at 50 mg/kg was 60%.

Consider `CCc1cc2[nH]c(=O)n(N(C(=O)OCC(C)C)S(C)(=O)=O)c(=O)c2cc1-c1ccnn1CC` [Example 13.01, Methanesulfonyl-[7-ethyl-6-(2-ethyl-2H-pyrazol-3-yl)-2,4-dioxo-1,4-dihydro-2H-quinazolin-3-yl]carbamic acid isobutyl ester], for which the responders at 50 mg/kg worked out at 20%. For `CCn1nccc1-c1cc2c(=O)n(N(C(=O)OC)S(C)(=O)=O)c(=O)[nH]c2cc1C(F)(F)F` [Example 15.01, [6-(2-Ethyl-2H-pyrazol-3-yl)-2,4-dioxo-7-trifluoromethyl-1,4-dihydro-2H-quinazolin-3-yl]-methanesulfonyl-carbamic acid methyl ester], the responders at 50 mg/kg was determined as 40%. With `CC(=O)OCC(=O)N(n1c(=O)[nH]c2cc(C(C)C)c(-c3ccnn3C)cc2c1=O)S(C)(=O)=O` [Example 3.17, Acetic acid 2-{[7-isopropyl-6-(2-methyl-2H-pyrazol-3-yl)-2,4-dioxo-1,4-dihydro-2H-quinazolin-3-yl]-methanesulfonyl-amino}-2-oxo-ethyl ester], the responders at 50 mg/kg came to 100%. Regarding `CCCOC(=O)N(n1c(=O)[nH]c2cc(C(F)(F)F)c(-c3ccnn3C(C)C)cc2c1=O)S(C)(=O)=O` [Example 5.07, [6-(2-Isopropyl-2H-pyrazol-3-yl)-2,4-dioxo-7-trifluoromethyl-1,4-dihydro-2H-quinazolin-3-yl]-methanesulfonyl-carbamic acid propyl ester], the responders at 50 mg/kg stood at 40%.

Staying with this assay, now noted: Mus musculus, po; Dose: 25 mg/kg, p.o. (footnote b), pre-treatment time −1 h; read-out: %-Protection.
In the case of `CCc1cc2[nH]c(=O)n(N(C(=O)OCCOC)S(C)(=O)=O)c(=O)c2cc1-c1ccnn1C` [Example 2.05, Methanesulfonyl-[7-ethyl-6-(2-methyl-2H-pyrazol-3-yl)-2,4-dioxo-1,4-dihydro-2H-quinazolin-3-yl]-carbamic acid 2-methoxy-ethyl ester], the responders at 25 mg/kg came out at 80%. `CCCC(=O)N(n1c(=O)[nH]c2cc(CC)c(-c3ccnn3C)cc2c1=O)S(C)(=O)=O` [Example 2.02, N-Butyryl-N-[7-ethyl-6-(2-methyl-2H-pyrazol-3-yl)-2,4-dioxo-1,4-dihydro-2H-quinazolin-3-yl]-methanesulfonamide]: the responders at 25 mg/kg turned out to be 100%.

Staying with this assay, now noted: Mus musculus; dose of up to 50 mg/kg, p.o., 1 hour prior to induction of convulsions; read-out: %-Protection.
For `CCc1cc2[nH]c(=O)n(N(C(=O)OC)S(C)(=O)=O)c(=O)c2cc1-c1ccnn1CC` [Methanesulfonyl-[7-ethyl-6-(2-ethyl-2H-pyrazol-3-yl)-2,4-dioxo-1,4-dihydro-2H-quinazolin-3-yl]carbamic acid methyl ester], the responders at 50 mg/kg stood at 0%. For `CCn1nccc1-c1cc2c(=O)n(N(C(C)=O)S(C)(=O)=O)c(=O)[nH]c2cc1C(F)(F)F` [N-Acetyl-N-[6-(2-ethyl-2H-pyrazol-3-yl)-2,4-dioxo-7-trifluoromethyl-1,4-dihydro-2H-quinazolin-3-yl]-methanesulfonamide], the responders at 50 mg/kg was 0%. For the molecule `CC(=O)OCC(=O)N(n1c(=O)[nH]c2cc(C(F)(F)F)c(-c3ccnn3C(C)C)cc2c1=O)S(C)(=O)=O` [Acetic acid 2-{[6-(2-isopropyl-2H-pyrazol-3-yl)-2,4-dioxo-7-trifluoromethyl-1,4-dihydro-2H-quinazolin-3-yl]-methanesulfonyl-amino}-2-oxo-ethyl ester], the responders at 50 mg/kg stood at 0%. On to `CCc1cc2[nH]c(=O)n(N(C(=O)OCCOC)S(C)(=O)=O)c(=O)c2cc1-c1ccnn1CC` [Methanesulfonyl-[7-ethyl-6-(2-ethyl-2H-pyrazol-3-yl)-2,4-dioxo-1,4-dihydro-2H-quinazolin-3-yl]carbamic acid 2-methoxy-ethyl ester], for which the responders at 50 mg/kg is 0%.

A further assay deals with AMPA receptor. The assay can be described thus: [3H]CNQX binding test (AMPA-receptor binding). Also noted: species or system rat. To be noted: Table 1A parent compounds; AMPA-receptor binding as described for Table 2; read-out: IC50. Here is the method: CNQX binding test (Honore et al. Biochem. Pharmacol. 1989, 38: 3207-3212). This test is performed as follows.
Brain membranes: The animals are sacrificed, the brain removed and homogenized in 10 volumes of ice-cold 10% sucrose with a glass/Teflon homogenizer at positions 5 for 30 sec. The membranes are centrifuged at 1000×g for 10 min, and the supernatant centrifuged at 20,000×g for 15 min. The resulting pellet is resuspended in 10 volumes of cold water with a tissue homogenizer (Brinkman Polytron) at position 5 for 15 sec and the suspension centrifuged at 8000×g for 10 min. The supernatant including the buffy layer is centrifuged at 40,000×g for 20 min, the pellet resuspended in 5 volumes of water and the suspension frozen (20-30 min in dry ice/MeOH) and thawed (water-bath at 37° C.) twice. The suspension is centrifuged at 40,000×g for 20 min, the pellet resuspended in 50 mM HEPES/KOH, pH 7.5, and centrifuged at 40,000×g for 10 min. The final pellet is resuspended with a glass/Teflon homogenizer in 5 volumes of HEPES/KOH buffer; 2 mL aliquots are frozen and stored in liquid nitrogen.
Pretreatment of membranes: Membranes are thawed at 35° C. and once washed with 50 mM HEPES/KOH by centrifugation at 39,000×g for 10 min. The final pellet is resuspended with a glass/Teflon homogenizer in the same buffer.
Radioligand binding assay: It is performed using 96-well microtiterplates in a volume of 0.3 mL of 50 mM HEPES/KOH, pH 7.2, 100 μg membrane protein, 5 nM [^3H]-CNQX (NEN) and the compound to be tested. Incubation is performed at 4° C. for 40 min and the reaction is terminated by centrifugation (Sigma 4K10) at 3700×g for 30 min. The pellet is washed once with cold buffer and then dissolved in 0.02 mL of the tissue solubilizer Soluene for 20 min. Two hundred μL of the scintillation fluid Microscint 20 (Packard) are added and the radioactivity is counted in a Packard Topcount scintillation counter at an efficiency of 40-45%. Nonspecific binding is defined by 10 μM CNQX. Assays are performed in triplicate.
`CC(C)c1cc2[nH]c(=O)n(NS(C)(=O)=O)c(=O)c2cc1-c1ccnn1-c1ccccc1` [Example 49.0]: the IC50 is 3.5 µM. Regarding `CC(C)n1nccc1-c1cc2c(=O)n(NS(C)(=O)=O)c(=O)[nH]c2cc1C(F)F` [Example 35.0], the IC50 was determined as 0.11 µM. For `CCOC(C)c1cc2c(=O)n(NS(C)(=O)=O)c(=O)[nH]c2cc1CC` (stereo not shown) [Example 50.0], the IC50 came out at 1.85 µM. On the same count and under the same terms, the same measure for `COCCn1nccc1-c1cc2c(=O)n(NS(C)(=O)=O)c(=O)[nH]c2cc1C(C)C` [Example 36.0]: 0.32 µM. In the case of `CC(F)c1cc2[nH]c(=O)n(NS(C)(=O)=O)c(=O)c2cc1-c1ccnn1C` (stereo not shown) [Example 43.0], the IC50 was found to be 0.7 µM. Consider `COC(c1cc2c(=O)n(NS(C)(=O)=O)c(=O)[nH]c2cc1C(F)(F)F)C(C)C` (stereo not shown) [Example 28.0], for which the IC50 is 1.04 µM.

In the case of `CCOC(CC)c1cc2c(=O)n(NS(C)(=O)=O)c(=O)[nH]c2cc1C(F)(F)F` (stereo not shown) [Example 26.0], the IC50 came to 0.51 µM. As for `Cn1nccc1-c1cc2c(=O)n(NS(C)(=O)=O)c(=O)[nH]c2cc1C(C)(F)F` [Example 41.0], the IC50 worked out at 0.58 µM. The same measure, in the same setting: the same measure for `COC(C)c1cc2c(=O)n(NS(C)(=O)=O)c(=O)[nH]c2cc1C(F)(F)F` (stereo not shown) [Example 16.0]: 0.39 µM; for `COCCn1nccc1-c1cc2c(=O)n(NS(C)(=O)=O)c(=O)[nH]c2cc1C(F)(F)F` [Example 32.0]: 0.31 µM. For `CC(OC1CCCC1)c1cc2c(=O)n(NS(C)(=O)=O)c(=O)[nH]c2cc1C(F)(F)F` (stereo not shown) [Example 25.0], the IC50 is 0.54 µM. The same measure, in the same setting: under `CCCCOC(C)c1cc2c(=O)n(NS(C)(=O)=O)c(=O)[nH]c2cc1C(F)(F)F` (stereo not shown) [Example 23.0] stands 0.76 µM. As for `Cn1nccc1-c1cc2c(=O)n(NS(C)(=O)=O)c(=O)[nH]c2cc1C(F)F` [Example 34.0], the IC50 was 0.26 µM.

As for `CC(OCc1ccccc1)c1cc2c(=O)n(NS(C)(=O)=O)c(=O)[nH]c2cc1C(F)(F)F` (stereo not shown) [Example 51.0], the IC50 is 0.78 µM.

Take `CC(C)c1cc2[nH]c(=O)n(NS(C)(=O)=O)c(=O)c2cc1-c1ccnn1C(C)C` [Example 37.0]: the IC50 is 0.43 µM. Turning to `CC(C)n1nccc1-c1cc2c(=O)n(NS(C)(=O)=O)c(=O)[nH]c2cc1C(C)(F)F` [Example 40.0], the IC50 was determined as 0.21 µM.

For `CCCOC(CC)c1cc2c(=O)n(NS(C)(=O)=O)c(=O)[nH]c2cc1C(F)(F)F` (stereo not shown) [Example 19.0], the IC50 is 0.52 µM. Regarding `CCCC(OC)c1cc2c(=O)n(NS(C)(=O)=O)c(=O)[nH]c2cc1C(F)(F)F` (stereo not shown) [Example 27.0], the IC50 is 0.72 µM.

Regarding `CC(C)c1cc2[nH]c(=O)n(NS(C)(=O)=O)c(=O)c2cc1-c1ccnn1[C@@H]1CCOC1` [Example 45.0], the IC50 was 0.56 µM. Take `CS(=O)(=O)Nn1c(=O)[nH]c2cc(C(F)(F)F)c(-c3ccnn3C3CCCC3)cc2c1=O` [Example 46.0]: the IC50 worked out at 1.2 µM. For the molecule `CS(=O)(=O)Nn1c(=O)[nH]c2cc(C(F)(F)F)c(-c3ccnn3O)cc2c1=O` [Example 31.0], the IC50 is 0.14 µM. With `CS(=O)(=O)Nn1c(=O)[nH]c2cc(C(F)(F)F)c(-c3ccn[nH]3)cc2c1=O` [Example 38.0], the IC50 is 0.47 µM. With `CCOC(C)c1cc2c(=O)n(NS(C)(=O)=O)c(=O)[nH]c2cc1C(F)(F)F` (stereo not shown) [Example 17.0], the IC50 came to 0.35 µM. Take `CC(C)COC(C)c1cc2c(=O)n(NS(C)(=O)=O)c(=O)[nH]c2cc1C(F)(F)F` (stereo not shown) [Example 24.0]: the IC50 was 1.81 µM. On the same count and under the same terms, the same measure for `CCOC(C)c1cc2c(=O)n(NS(C)(=O)=O)c(=O)[nH]c2cc1C(F)F` (stereo not shown) [Example 21.0]: 0.9 µM. For `Cn1nccc1-c1cc2c(=O)n(NS(C)(=O)=O)c(=O)[nH]c2cc1CF` [Example 39.0], the IC50 is 0.77 µM. On the same count and under the same terms, the same measure for `CCCOC(C)c1cc2c(=O)n(NS(C)(=O)=O)c(=O)[nH]c2cc1C(F)(F)F` (stereo not shown) [Example 22.0]: 0.98 µM.

The values above are taken from US20130053381A1, “2,4-DIOXO-1,4-DIHYDRO-2H-QUINAZOLIN-3-YL-SULFONAMIDE DERIVATIVES” (NOVARTIS AG, priority 2010, published 2013).
